# Assay results from ChEMBL document CHEMBL1130578, “Solid-phase synthesis of a N-carboxyalkyl tripeptide combinatorial library” (Bioorg Med Chem Lett, 1997).
# Target: Stromelysin-1 (Homo sapiens, UniProt P08254)
# Assay: Inhibition of matrix metalloprotease-3
# Chain of Stromelysin-1 (P08254 whole entry): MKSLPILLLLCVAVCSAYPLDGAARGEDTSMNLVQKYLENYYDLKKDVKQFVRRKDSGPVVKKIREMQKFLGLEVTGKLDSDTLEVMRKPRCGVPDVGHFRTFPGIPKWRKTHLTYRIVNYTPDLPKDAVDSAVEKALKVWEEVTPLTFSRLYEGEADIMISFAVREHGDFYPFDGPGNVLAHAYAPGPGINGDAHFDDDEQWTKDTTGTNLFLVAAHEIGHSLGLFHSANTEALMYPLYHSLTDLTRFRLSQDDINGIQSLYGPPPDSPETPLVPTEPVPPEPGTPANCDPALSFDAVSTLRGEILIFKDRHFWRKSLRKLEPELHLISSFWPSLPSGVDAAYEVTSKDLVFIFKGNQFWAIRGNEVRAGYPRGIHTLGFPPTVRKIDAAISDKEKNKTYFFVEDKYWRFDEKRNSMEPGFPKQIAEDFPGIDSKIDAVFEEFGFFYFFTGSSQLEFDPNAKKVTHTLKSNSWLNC
row,SMILES,IC50 [nM]
1,CCCCCCC(N[C@@H](CCc1ccccc1)C(=O)N[C@@H](CCCN=C(N)N)C(=O)N[C@@H](CC(C)C)C(=O)OC)C(=O)O (stereo not given in full),400
2,CCCCCCC(N[C@@H](CCc1ccccc1)C(=O)N[C@@H](CCCN=C(N)N)C(=O)N[C@@H](CCc1ccccc1)C(=O)OC)C(=O)O (stereo not given in full),800
3,CCCCCCC(N[C@@H](CCc1ccccc1)C(=O)N[C@@H](CCCN=C(N)N)C(=O)N[C@@H](CCCC)C(=O)OC)C(=O)O (stereo not given in full),900

# Second part, the compound after the results:
row,IC50 [nM],SMILES
1,900,CCCCCCC(N[C@@H](CCc1ccccc1)C(=O)N[C@@H](CCCN=C(N)N)C(=O)N[C@@H](Cc1cc2ccccc2[nH]1)C(=O)OC)C(=O)O (stereo not given in full)
2,900,CCCCCCC(N[C@@H](CCc1ccccc1)C(=O)N[C@@H](CCCN=C(N)N)C(=O)N[C@@H](CCC(N)=O)C(=O)OC)C(=O)O (stereo not given in full)
